Measured values taken from ChEMBL document CHEMBL1148595, “Identification of Darmstoff analogs as selective agonists and antagonists of lysophosphatidic acid receptors” (Bioorg Med Chem Lett, 2006).

Tests used:
[1] = target: Lysophosphatidic acid receptor 2 (Homo sapiens, UniProt Q9HBW0); assay: Activity at LPA2 receptor in RH7777 rat hepatoma cell line; assay type: cell-based
[2] = target: T1, Peroxisome proliferator-activated receptor gamma (Homo sapiens) (UniProt P37231); assay: PPARgamma activation in CV1 cells; assay type: cell-based; details: CV-1, filed as agonist
T1 sequence (whole entry): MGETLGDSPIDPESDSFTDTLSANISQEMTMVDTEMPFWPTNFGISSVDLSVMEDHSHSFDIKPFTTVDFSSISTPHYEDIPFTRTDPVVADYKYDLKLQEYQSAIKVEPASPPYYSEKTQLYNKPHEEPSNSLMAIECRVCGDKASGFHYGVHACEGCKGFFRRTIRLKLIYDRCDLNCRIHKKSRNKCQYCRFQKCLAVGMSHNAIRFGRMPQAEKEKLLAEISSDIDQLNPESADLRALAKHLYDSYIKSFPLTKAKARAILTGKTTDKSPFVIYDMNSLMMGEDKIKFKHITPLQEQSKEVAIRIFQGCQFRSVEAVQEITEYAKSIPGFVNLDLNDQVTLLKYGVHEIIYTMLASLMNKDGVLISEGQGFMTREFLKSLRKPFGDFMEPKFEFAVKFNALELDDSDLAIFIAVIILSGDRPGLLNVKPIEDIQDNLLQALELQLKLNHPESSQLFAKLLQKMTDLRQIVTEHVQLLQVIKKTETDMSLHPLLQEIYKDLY

Autotaxin = Autotaxin (Homo sapiens, UniProt Q13822); assay: Inhibition of lysophospholipase D autotaxin; details: for residual activity: values are per cent of control
[3] = target: Lysophosphatidic acid receptor 1 (Rattus norvegicus, UniProt P61794); assay: Activity at LPA1 receptor in RH7777 rat hepatoma cell line
Lysophosphatidic acid receptor 1, sequence (P61794 whole entry): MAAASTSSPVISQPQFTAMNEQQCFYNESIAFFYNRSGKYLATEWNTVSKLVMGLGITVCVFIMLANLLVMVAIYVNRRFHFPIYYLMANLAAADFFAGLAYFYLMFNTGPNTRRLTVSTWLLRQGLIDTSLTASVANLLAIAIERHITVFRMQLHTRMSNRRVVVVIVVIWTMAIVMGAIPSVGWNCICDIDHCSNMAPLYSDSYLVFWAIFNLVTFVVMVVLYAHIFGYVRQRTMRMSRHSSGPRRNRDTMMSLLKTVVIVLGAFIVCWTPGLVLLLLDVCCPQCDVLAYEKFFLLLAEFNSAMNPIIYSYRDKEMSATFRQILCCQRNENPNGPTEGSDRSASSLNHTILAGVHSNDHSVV

[4] = target: T2, Lysophosphatidic acid receptor 3 (Rattus norvegicus) (UniProt Q8K5E0); assay: (§1) Activity at LPA3 receptor in RH7777 rat hepatoma cell line; assay type: cell-based
T2 sequence (whole entry): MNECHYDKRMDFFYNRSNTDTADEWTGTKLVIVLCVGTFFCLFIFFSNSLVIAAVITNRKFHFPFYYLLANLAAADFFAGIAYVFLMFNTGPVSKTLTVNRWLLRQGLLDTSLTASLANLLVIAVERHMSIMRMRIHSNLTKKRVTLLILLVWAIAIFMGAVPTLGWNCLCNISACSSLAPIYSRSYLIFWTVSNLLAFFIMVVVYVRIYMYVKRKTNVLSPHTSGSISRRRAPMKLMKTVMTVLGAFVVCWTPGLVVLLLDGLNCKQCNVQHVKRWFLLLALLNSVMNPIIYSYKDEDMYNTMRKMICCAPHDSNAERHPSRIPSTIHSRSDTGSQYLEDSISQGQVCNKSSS

[5] = target: T3, Lysophosphatidic acid receptor 3 (Rattus norvegicus, UniProt Q8K5E0); assay: as §1; assay type: cell-based
T3 sequence (Q8K5E0 whole entry): T2 sequence (whole entry)

Lysophosphatidic acid receptor 2, sequence (Q9HBW0 whole entry): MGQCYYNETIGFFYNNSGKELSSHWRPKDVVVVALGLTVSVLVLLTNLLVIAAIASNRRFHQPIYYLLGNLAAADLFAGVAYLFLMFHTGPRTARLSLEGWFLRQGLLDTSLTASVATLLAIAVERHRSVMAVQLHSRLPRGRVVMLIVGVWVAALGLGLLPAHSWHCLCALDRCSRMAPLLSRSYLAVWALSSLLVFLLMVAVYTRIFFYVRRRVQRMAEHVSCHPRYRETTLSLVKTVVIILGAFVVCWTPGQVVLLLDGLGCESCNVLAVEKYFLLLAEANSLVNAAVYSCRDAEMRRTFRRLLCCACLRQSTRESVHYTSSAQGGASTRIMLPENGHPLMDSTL

Activity [2] | IC50 (Autotaxin) [nM] | residual activity (Autotaxin) [%] | IC50 [3] [nM] | Ki [3] [nM] | IC50 [1] [nM] | Ki [1] [nM] | IC50 [5] [nM] | Ki [5] [nM] | Structure (SMILES) | EC50 [1] [nM] | Emax [1] [%] | EC50 [3] [nM] | Emax [4] [%] | EC50 [5] [nM]
Agonist | 120 | 30 |  |  |  |  |  |  | CCCCCCC/C=C/CCCCCCCC[C@H]1OC[C@H](COP(=O)(O)O)O1 | 1170 | 39 |  |  | 
Agonist | 803 | 54 |  |  |  |  |  |  | C/C=C/C/C=C/C/C=C/CCCCCCCCC1OCC(COP(=O)(O)O)O1 (stereo unspecified) | 1710 | 51 | 3600 | 29 | 7590
Agonist |  | 26 | 1110 | 652 | 7430 | 745 |  |  | CCCCCCCCCCCCC1OCC(COP(=O)(O)O)O1 (stereo unspecified) |  |  |  |  | 
Agonist | 238 | 46 |  |  |  |  | 484 | 241 | CCCCCCC/C=C/CCCCCCCC[C@@H]1OC[C@@H](COP(=O)(O)O)O1 | > 10000 |  | > 10000 |  | 
Agonist | 178 | 25 |  |  |  |  | 209 | 77 | CCCCCCC/C=C/CCCCCCCC[C@H]1OC[C@@H](COP(=O)(O)O)O1 |  |  |  |  | 
Agonist | 141 | 30 | 915 | 497 |  |  |  |  | CCCCCCC/C=C/CCCCCCCCC1OCC(COP(=O)(O)O)O1 (stereo unspecified) | > 10000 |  |  |  | 
Agonist | 97 | 28 |  |  |  |  | 136 | 83 | CCCCCCC/C=C/CCCCCCCC[C@@H]1OC[C@H](COP(=O)(O)O)O1 | 1710 | 42 |  |  | 
Agonist | 106 | 10 | 4660 | 1930 |  |  | 504 | 171 | CCCCCCCCc1ccc(CCCCCCC2OCC(COP(=O)(O)O)O2)cc1 (stereo unspecified) |  |  |  |  | 

Structure (SMILES) | Activity [2] | IC50 (Autotaxin) [nM] | residual activity (Autotaxin) [%] | IC50 [3] [nM] | Ki [3] [nM] | IC50 [1] [nM] | Ki [1] [nM] | IC50 [5] [nM] | Ki [5] [nM] | EC50 [1] [nM] | Emax [1] [%] | EC50 [3] [nM] | Emax [4] [%] | EC50 [5] [nM]
CCCCCCC/C=C/CCCCCCCC[C@@H]1OC[C@@H](COP(O)(O)=S)O1 | Agonist | 363 | 64 |  |  |  |  |  |  | 1540 | 72 | 2260 | 102 | 204
CCCCCCC/C=C/CCCCCCCC[C@H]1OC[C@H](COP(O)(O)=S)O1 | Agonist | 252 | 74 |  |  |  |  |  |  | 1300 | 77 | 1580 | 127 | 127
CCCCCCC/C=C/CCCCCCCC[C@@H]1OC[C@H](COP(O)(O)=S)O1 | Agonist | 344 | 66 |  |  |  |  |  |  | 1090 | 85 | 1410 | 113 | 194
CCCCCCCCc1ccc(CCCCCCC2OCC(COP(O)(O)=S)O2)cc1 (stereo unspecified) | Agonist | 449 | 55 |  |  |  |  |  |  |  |  |  | 87 | 692
CCCCCCC/C=C/CCCCCCCCC1OCC(COP(O)(O)=S)O1 (stereo unspecified) | Agonist | 415 | 51 |  |  |  |  |  |  | 1170 | 87 | 981 | 73 | 639
CCCCCCC/C=C/CCCCCCCC[C@H]1OC[C@@H](COP(O)(O)=S)O1 | Agonist | 403 | 60 |  |  |  |  |  |  | 1320 | 87 | 1560 | 78 | 265
